In PubChem BioAssay AID1963424 (Molecular Pharmacology Branch, DTP, NCI, 2024):

Tested on: 327498-153-R-J2-PDC complex spheroid growth, % test/control
Assay: Anticancer human tumor 327498-153-R-J2-PDC patient-derived uterine carcinosarcoma cell line growth inhibition [Asc]
Conditions: for IC50: curve of first compound; for viability, T/C: stronger effect = lower value
Procedure, shortened: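 Complex spheroids combining tumor cells with HUVEC endothelial cells and human MSCs, at 37 degrees C, 5% CO2; agents tested alone or combined, half-log dilutions from at or near clinical Cmax, or 10 microM if Cmax unknown.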

[1] = second compound 0.03 µM, first compound 0.0316 µM
[2] = second compound 0.03 µM, first compound 0.1 µM
[3] = second compound 0.03 µM, first compound 0.316 µM
[4] = second compound 0.03 µM, first compound 1 µM
[5] = second compound 0.03 µM, first compound 3.16 µM
[6] = second compound 0.03 µM, first compound 10 µM
[7] = second compound 0.0949 µM, first compound 0.0316 µM
[8] = second compound 0.0949 µM, first compound 0.1 µM
[9] = second compound 0.0949 µM, first compound 0.316 µM
[10] = second compound 0.0949 µM, first compound 1 µM
[11] = second compound 0.0949 µM, first compound 3.16 µM
[12] = second compound 0.0949 µM, first compound 10 µM
[13] = second compound 0.3 µM, first compound 0.0316 µM
[14] = second compound 0.3 µM, first compound 0.1 µM
[15] = second compound 0.3 µM, first compound 0.316 µM
[16] = second compound 0.3 µM, first compound 1 µM
[17] = second compound 0.3 µM, first compound 3.16 µM
[18] = second compound 0.3 µM, first compound 10 µM
[19] = second compound 0.949 µM, first compound 0.0316 µM
[20] = second compound 0.949 µM, first compound 0.1 µM
[21] = second compound 0.949 µM, first compound 0.316 µM
[22] = second compound 0.949 µM, first compound 1 µM
[23] = second compound 0.949 µM, first compound 3.16 µM
[24] = second compound 0.949 µM, first compound 10 µM
[25] = second compound 3 µM, first compound 0.0316 µM
[26] = second compound 3 µM, first compound 0.1 µM
[27] = second compound 3 µM, first compound 0.316 µM
[28] = second compound 3 µM, first compound 1 µM
[29] = second compound 3 µM, first compound 3.16 µM
[30] = second compound 3 µM, first compound 10 µM
[31] = second compound 0.03 µM, first compound 0.00316 µM
[32] = second compound 0.03 µM, first compound 0.01 µM
[33] = second compound 0.0949 µM, first compound 0.00316 µM
[34] = second compound 0.0949 µM, first compound 0.01 µM
[35] = second compound 0.3 µM, first compound 0.00316 µM
[36] = second compound 0.3 µM, first compound 0.01 µM
[37] = second compound 0.949 µM, first compound 0.00316 µM
[38] = second compound 0.949 µM, first compound 0.01 µM
[39] = second compound 3 µM, first compound 0.00316 µM
[40] = second compound 3 µM, first compound 0.01 µM
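Further: spheroids exposed to compound for 7 days after 3 days of growth.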
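Wherever viability, T/C is given: 100% = DMSO vehicle control wells.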

IC50 (second compound 0.03 µM)	IC50 (second compound 0.0949 µM)	IC50 (second compound 0.3 µM)	IC50 (second compound 0.949 µM)	IC50 (second compound 3 µM)	Structure (SMILES)	viability, T/C [1]	viability, T/C [2]	viability, T/C [3]	viability, T/C [4]	viability, T/C [7]	viability, T/C [8]	viability, T/C [9]	viability, T/C [10]	viability, T/C [13]	viability, T/C [14]	viability, T/C [15]	viability, T/C [16]	viability, T/C [19]	viability, T/C [20]	viability, T/C [21]	other results
2930 nM	709 nM	< 31.6 nM	< 31.6 nM	< 31.6 nM	C#Cc1c(F)ccc2cc(O)cc(-c3ncc4c(N5CC6CCC(C5)N6)nc(OCC56CCCN5CC(F)C6)nc4c3F)c12 (stereo not given) + CCN1C(C(=O)NC23CCC(C(=O)O)(CC2)CC3)C(c2cccc(Cl)c2F)C2(C(=O)Nc3cc(Cl)ccc32)C12CCCCC2	87.3%	94.4%	83.2%	61.2%	77.4%	74.7%	61.6%	43%	33.5%	36.1%	24.3%	15.7%	10.2%	9.47%	4.8%	viability, T/C [5]: 54%; viability, T/C [6]: 39.4%; viability, T/C [11]: 37%; viability, T/C [12]: 26.8%; viability, T/C [17]: 14.4%; viability, T/C [18]: 7.22%; viability, T/C [22]: 4.74%; viability, T/C [23]: 4.43%; viability, T/C [24]: 1.84%; viability, T/C [25]: 2.16%; viability, T/C [26]: 1.97%; viability, T/C [27]: 2.08%; viability, T/C [28]: 1.55%; viability, T/C [29]: 1.14%; viability, T/C [30]: 0.73%
552 nM	< 31.6 nM	< 31.6 nM	< 31.6 nM	< 31.6 nM	C=C(F)C(=O)N1CCN(c2nc(OCC3CCCN3C)nc3c2CCN(c2cccc4cccc(Cl)c24)C3)CC1CC#N (stereo not given) + CCN1C(C(=O)NC23CCC(C(=O)O)(CC2)CC3)C(c2cccc(Cl)c2F)C2(C(=O)Nc3cc(Cl)ccc32)C12CCCCC2	56.4%	55.3%	59.8%	42.5%	49.1%	38.6%	38.5%	25.4%	23.3%	18.5%	12.5%	10.9%	6.62%	5.04%	5.41%	viability, T/C [5]: 6.79%; viability, T/C [6]: 0.13%; viability, T/C [11]: 0.52%; viability, T/C [12]: 0.11%; viability, T/C [17]: 0.07%; viability, T/C [18]: 0.11%; viability, T/C [22]: 1.84%; viability, T/C [23]: 0.03%; viability, T/C [24]: 0.12%; viability, T/C [25]: 1.83%; viability, T/C [26]: 2.77%; viability, T/C [27]: 1.2%; viability, T/C [28]: 0.65%; viability, T/C [29]: 0.14%; viability, T/C [30]: 1.2%
> 10000 nM	< 31.6 nM	< 31.6 nM	< 31.6 nM	< 31.6 nM	C=CC(=O)N1CCN(c2nc(=O)n(-c3c(C)ccnc3C(C)C)c3nc(-c4c(O)cccc4F)c(F)cc23)C(C)C1 (stereo not given) + CCN1C(C(=O)NC23CCC(C(=O)O)(CC2)CC3)C(c2cccc(Cl)c2F)C2(C(=O)Nc3cc(Cl)ccc32)C12CCCCC2	80.2%	66.8%	61.3%	61%	48.1%	43.3%	39.1%	40.8%	25.8%	22.3%	21.1%	13.9%	6.85%	10.2%	5.74%	viability, T/C [5]: 60.4%; viability, T/C [6]: 47.7%; viability, T/C [11]: 31%; viability, T/C [12]: 23.5%; viability, T/C [17]: 15.8%; viability, T/C [18]: 10.9%; viability, T/C [22]: 6.83%; viability, T/C [23]: 5.12%; viability, T/C [24]: 4.58%; viability, T/C [25]: 2.47%; viability, T/C [26]: 2.14%; viability, T/C [27]: 2.66%; viability, T/C [28]: 2.75%; viability, T/C [29]: 3.23%; viability, T/C [30]: 2.77%
> 1000 nM	> 1000 nM	< 3.16 nM	< 3.16 nM	< 3.16 nM	CNC(C)C(=O)NC1CN(S(=O)(=O)c2cccc(S(=O)(=O)N3CCC4CCC(C(=O)NC(c5ccccc5)c5ccccc5)N4C(=O)C(NC(=O)C(C)NC)C3)c2)CCC2CCC(C(=O)NC(c3ccccc3)c3ccccc3)N2C1=O (stereo not given) + CCN1C(C(=O)NC23CCC(C(=O)O)(CC2)CC3)C(c2cccc(Cl)c2F)C2(C(=O)Nc3cc(Cl)ccc32)C12CCCCC2	85.6%	91.7%	89.2%	73.3%	63.5%	65.8%	65.4%	60.4%	35.1%	24.6%	35.6%	30.3%	5.92%	4.78%	6.7%	viability, T/C [31]: 92.8%; viability, T/C [32]: 84.1%; viability, T/C [33]: 86.3%; viability, T/C [34]: 70.2%; viability, T/C [35]: 41.7%; viability, T/C [36]: 36.5%; viability, T/C [37]: 13.8%; viability, T/C [38]: 9.3%; viability, T/C [22]: 8.64%; viability, T/C [39]: 3.86%; viability, T/C [40]: 2.08%; viability, T/C [25]: 2.54%; viability, T/C [26]: 1.28%; viability, T/C [27]: 2.31%; viability, T/C [28]: 1.12%
81.8 nM	33.5 nM	< 3.16 nM	< 3.16 nM	< 3.16 nM	COc1c(OCCCN2CCOCC2)ccc2c3n(c(=NC(=O)c4cnc(N)nc4)nc12)CCN3 + CCN1C(C(=O)NC23CCC(C(=O)O)(CC2)CC3)C(c2cccc(Cl)c2F)C2(C(=O)Nc3cc(Cl)ccc32)C12CCCCC2	76.5%	41.8%	21.1%	5.21%	50.4%	25.6%	12.3%	2.62%	24.4%	10.8%	6.23%	0.74%	5.86%	2.63%	1.42%	viability, T/C [31]: 84.5%; viability, T/C [32]: 90.5%; viability, T/C [33]: 80.3%; viability, T/C [34]: 73.3%; viability, T/C [35]: 40.1%; viability, T/C [36]: 33.8%; viability, T/C [37]: 12.2%; viability, T/C [38]: 9.4%; viability, T/C [22]: 0.49%; viability, T/C [39]: 4.48%; viability, T/C [40]: 3.3%; viability, T/C [25]: 2.05%; viability, T/C [26]: 1.31%; viability, T/C [27]: 0.47%; viability, T/C [28]: 0.37%
